Measured values from patent publication US10479795B2 (Incyte Corporation, priority 2016, dated 2019).
Where a name gives a salt, the structure may show the parent alone. Read-outs that look alike come from different tables or passages of the source.

How the values were obtained:
[1] = molecular target: PI3Kδ (p110δ/p85α) Recombinant Human Protein (Homo sapiens (Human), UniProt O00329); experiment: PI3Kδ Scintillation Proximity Assay; assay type: biochemical
Summary of the method: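 Recombinant human p110δ/p85α (3.4 nM) with 20 μM PIP2 and 2 μM ATP plus [γ-33P]ATP, in 20 mM MOPS pH 6.7, 10 mM MgCl2, 5 mM DTT, 0.03% CHAPS, 2% DMSO; 120 min at room temperature. Product captured on WGA SPA beads, scintillation counted; IC50 from percent-of-control curves.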

[2] = molecular target: PI3Kγ (p110γ) Recombinant Human Protein (Homo sapiens (Human), UniProt P48736); experiment: PI3K-γ Scintillation Proximity Assay; assay type: biochemical; details: read-out: PI3Kγ IC50
Summary of the method: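 Recombinant human p110γ assayed at room temperature in 20 mM MOPS pH 6.7, 10 mM MgCl2, 5 mM DTT, 0.03% CHAPS, 2% DMSO, with 20 μM PIP2 and 2 μM ATP plus [γ-33P]ATP. Product captured on WGA SPA beads overnight and counted; IC50 fitted from % of solvent-control activity versus log inhibitor concentration.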

[3] = test system: Phosphorylated Ribosomal Protein S6 (RPS6); experiment: THP-1 RPS6 ELISA Assay; assay type: cell-based, Human; details: THP-1 cells, read-out: PI3Kγ_THP1_RPS6_ELISA IC50
Summary of the method: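 Serum-starved THP-1 cells were preincubated with a concentration range of compound for 2 h at 37 °C, then stimulated with 10 nM MCP-1 for 15 min. Phospho-RPS6 in lysates was quantified by ELISA at 450 nm. IC50 came from percent inhibition versus log inhibitor concentration.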

PI3Kγ (p110γ) Recombinant Human Protein, sequence (P48736 whole entry): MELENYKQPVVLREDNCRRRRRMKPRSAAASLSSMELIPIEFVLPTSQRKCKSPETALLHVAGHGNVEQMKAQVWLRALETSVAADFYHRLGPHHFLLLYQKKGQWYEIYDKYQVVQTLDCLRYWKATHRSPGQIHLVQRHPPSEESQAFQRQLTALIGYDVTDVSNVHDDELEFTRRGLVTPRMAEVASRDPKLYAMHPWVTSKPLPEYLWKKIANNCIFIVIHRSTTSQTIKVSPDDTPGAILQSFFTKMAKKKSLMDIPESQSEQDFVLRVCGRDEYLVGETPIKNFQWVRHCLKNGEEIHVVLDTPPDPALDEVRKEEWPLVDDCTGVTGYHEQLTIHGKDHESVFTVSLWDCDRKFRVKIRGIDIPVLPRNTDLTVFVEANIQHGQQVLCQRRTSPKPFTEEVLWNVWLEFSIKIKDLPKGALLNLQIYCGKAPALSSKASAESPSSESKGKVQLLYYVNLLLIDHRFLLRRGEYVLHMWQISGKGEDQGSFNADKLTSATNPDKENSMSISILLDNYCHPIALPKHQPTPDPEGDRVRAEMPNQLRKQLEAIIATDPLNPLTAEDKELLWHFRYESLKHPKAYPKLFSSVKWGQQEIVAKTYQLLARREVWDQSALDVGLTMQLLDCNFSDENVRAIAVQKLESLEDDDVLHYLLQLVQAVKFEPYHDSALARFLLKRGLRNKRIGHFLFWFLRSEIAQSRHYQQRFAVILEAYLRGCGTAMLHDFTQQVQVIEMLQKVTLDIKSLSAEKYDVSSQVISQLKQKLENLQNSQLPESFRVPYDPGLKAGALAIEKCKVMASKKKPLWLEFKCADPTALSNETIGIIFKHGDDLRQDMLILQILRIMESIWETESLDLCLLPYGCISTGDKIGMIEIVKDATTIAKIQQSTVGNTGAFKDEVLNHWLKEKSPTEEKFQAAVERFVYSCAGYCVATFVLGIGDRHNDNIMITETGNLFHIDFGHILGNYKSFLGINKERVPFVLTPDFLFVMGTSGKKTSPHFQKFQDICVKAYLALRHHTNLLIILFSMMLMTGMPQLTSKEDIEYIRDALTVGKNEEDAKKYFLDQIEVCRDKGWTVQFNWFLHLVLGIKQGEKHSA
PI3Kδ (p110δ/p85α) Recombinant Human Protein, sequence (O00329 whole entry): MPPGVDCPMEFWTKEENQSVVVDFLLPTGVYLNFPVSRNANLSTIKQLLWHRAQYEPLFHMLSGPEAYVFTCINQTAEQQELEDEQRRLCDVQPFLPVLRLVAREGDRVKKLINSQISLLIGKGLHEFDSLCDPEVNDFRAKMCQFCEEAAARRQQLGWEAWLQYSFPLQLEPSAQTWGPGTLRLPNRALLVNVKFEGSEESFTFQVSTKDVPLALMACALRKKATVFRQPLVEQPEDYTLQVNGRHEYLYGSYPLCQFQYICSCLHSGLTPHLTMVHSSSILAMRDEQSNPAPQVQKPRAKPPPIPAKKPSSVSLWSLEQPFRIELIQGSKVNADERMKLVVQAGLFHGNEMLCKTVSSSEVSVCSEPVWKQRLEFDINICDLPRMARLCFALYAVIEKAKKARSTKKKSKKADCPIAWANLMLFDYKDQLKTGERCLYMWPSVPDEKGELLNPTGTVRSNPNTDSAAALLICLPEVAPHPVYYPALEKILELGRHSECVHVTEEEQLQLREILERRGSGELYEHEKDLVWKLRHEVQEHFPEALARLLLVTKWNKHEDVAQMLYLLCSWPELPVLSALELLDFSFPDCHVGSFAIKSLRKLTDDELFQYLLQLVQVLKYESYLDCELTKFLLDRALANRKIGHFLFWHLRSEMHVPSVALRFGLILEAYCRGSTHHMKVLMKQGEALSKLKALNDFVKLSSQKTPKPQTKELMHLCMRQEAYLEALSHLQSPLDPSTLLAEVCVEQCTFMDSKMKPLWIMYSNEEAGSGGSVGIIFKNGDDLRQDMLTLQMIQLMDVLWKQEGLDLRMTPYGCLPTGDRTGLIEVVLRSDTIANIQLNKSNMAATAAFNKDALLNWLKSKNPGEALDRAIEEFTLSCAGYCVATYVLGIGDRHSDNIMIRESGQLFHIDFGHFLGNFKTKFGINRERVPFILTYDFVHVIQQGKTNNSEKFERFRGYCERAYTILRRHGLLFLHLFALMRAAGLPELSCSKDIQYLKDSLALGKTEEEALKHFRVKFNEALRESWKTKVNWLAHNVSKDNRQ
PI3Kδ (p110δ/p85α) Recombinant Human Protein, sequence (P27986 whole entry partner): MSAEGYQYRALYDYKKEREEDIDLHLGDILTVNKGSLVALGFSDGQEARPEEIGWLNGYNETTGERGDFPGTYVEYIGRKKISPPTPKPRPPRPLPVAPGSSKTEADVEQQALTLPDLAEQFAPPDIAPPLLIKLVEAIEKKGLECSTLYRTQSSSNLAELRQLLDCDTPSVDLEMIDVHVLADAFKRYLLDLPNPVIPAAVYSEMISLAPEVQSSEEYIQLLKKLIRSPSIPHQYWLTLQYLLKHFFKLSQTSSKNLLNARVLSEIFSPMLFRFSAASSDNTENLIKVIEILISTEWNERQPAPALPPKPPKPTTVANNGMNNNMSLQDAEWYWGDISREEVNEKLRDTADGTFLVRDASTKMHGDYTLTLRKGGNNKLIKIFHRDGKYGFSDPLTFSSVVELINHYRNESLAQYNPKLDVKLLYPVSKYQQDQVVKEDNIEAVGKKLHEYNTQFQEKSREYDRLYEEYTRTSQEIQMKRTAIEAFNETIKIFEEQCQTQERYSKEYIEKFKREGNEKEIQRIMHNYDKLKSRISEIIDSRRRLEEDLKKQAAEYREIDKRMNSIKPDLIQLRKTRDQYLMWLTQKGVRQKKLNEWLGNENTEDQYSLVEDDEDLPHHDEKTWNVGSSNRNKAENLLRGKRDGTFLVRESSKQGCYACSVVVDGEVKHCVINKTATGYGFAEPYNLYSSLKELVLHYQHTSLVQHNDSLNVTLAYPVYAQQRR

Compound | IC50 [1] [nM] | IC50 [2] [nM] | IC50 ([3]; Homo sapiens) [nM] | IC50 [3] [nM]
Cc1ccc(S(=O)(=O)NC2CCCCC2O)cc1-c1cnc2c(N)ncnn12 (stereo not drawn) [Example 137, 3-(4-aminoimidazo[2,1-f][1,2,4]triazin-7-yl)-N-(2-hydroxycyclohexyl)-4-methylbenzenesulfonamide] | 500 to 2000 | < 100 | > 1000 | –
Cc1ccc(S(=O)(=O)NCCN2CCCC2=O)cc1-c1cnc2c(N)ncnn12 [Example 138, 3-(4-aminoimidazo[2,1-f][1,2,4]triazin-7-yl)-4-methyl-N-(2-(2-oxopyrrolidin-1-yl)ethyl)benzenesulfonamide] | 500 to 2000 | < 100 | > 1000 | –
Cc1ccc(S(N)(=O)=O)cc1-c1cnc2c(N)ncnn12 [Example 139, 3-(4-aminoimidazo[2,1-f][1,2,4]triazin-7-yl)-4-methylbenzenesulfonamide] | 500 to 2000 | < 100 | > 1000 | –
Cc1ccc(S(=O)(=O)N[C@H]2C[C@](O)(C(F)(F)F)C2)cc1-c1cnc2c(N)ncnn12 [Example 140, 3-(4-aminoimidazo[2,1-f][1,2,4]triazin-7-yl)-N-((1S,3S)-3-hydroxy-3-(trifluoromethyl)cyclobutyl)-4-methylbenzenesulfonamide] | 500 to 2000 | < 100 | – | 100 to 500
Cc1ccc(S(=O)(=O)N2CC3(C2)CC(O)(C(F)(F)F)C3)cc1-c1cnc2c(N)ncnn12 [Example 141, 2-((3-(4-aminoimidazo[2,1-f][1,2,4]triazin-7-yl)-4-methylphenyl)sulfonyl)-6-(trifluoromethyl)-2-azaspiro[3.3]heptan-6-ol] | 100 to 500 | < 100 | 100 to 500 | –
Cc1ccc(S(=O)(=O)N2CCC3(CCOCC3)C2)cc1-c1cnc2c(N)ncnn12 [Example 142, 7-(5-((8-oxa-2-azaspiro[4.5]decan-2-yl)sulfonyl)-2-methylphenyl)imidazo[2,1-f][1,2,4]triazin-4-amine] | 500 to 2000 | < 100 | 100 to 500 | –
Cc1ccc(S(=O)(=O)N2CC3(COC3)C2)cc1-c1cnc2c(N)ncnn12 [Example 143, 7-(5-((2-oxa-6-azaspiro[3.3]heptan-6-yl)sulfonyl)-2-methylphenyl)imidazo[2,1-f][1,2,4]triazin-4-amine] | 100 to 500 | < 100 | > 1000 | –
Cc1ccc(S(=O)(=O)N2CC(O)(C3CC3)C2)cc1-c1cnc2c(N)ncnn12 [Example 144, 1-((3-(4-aminoimidazo[2,1-f][1,2,4]triazin-7-yl)-4-methylphenyl)sulfonyl)-3-cyclopropylazetidin-3-ol, TFA] | 100 to 500 | < 100 | – | 500 to 1000
Cc1ccc(S(=O)(=O)N2CC3(CC(O)C3)C2)cc1-c1cnc2c(N)ncnn12 [Example 145, 2-((3-(4-aminoimidazo[2,1-f][1,2,4]triazin-7-yl)-4-methylphenyl)sulfonyl)-2-azaspiro[3.3]heptan-6-ol, TFA] | 100 to 500 | < 100 | – | 100 to 500
Cc1ccc(S(=O)(=O)N2C(C)COCC2C)cc1-c1cnc2c(N)ncnn12 (stereo not drawn) [Example 155, 7-(5-((3,5-dimethylmorpholino)sulfonyl)-2-methylphenyl)imidazo[2,1-f][1,2,4]triazin-4-amine] | 100 to 500 | < 100 | 100 to 500 | –
Cc1ccc(S(=O)(=O)N2CCOCC2(C)C)cc1-c1cnc2c(N)ncnn12 [Example 156, 7-(5-((3,3-dimethylmorpholino)sulfonyl)-2-methylphenyl)imidazo[2,1-f][1,2,4]triazin-4-amine] | 500 to 2000 | < 100 | 500 to 1000 | –
Cc1ccc(S(=O)(=O)N2C(C)CCCC2CO)cc1-c1cnc2c(N)ncnn12 (stereo not drawn) [Example 157, (1-((3-(4-aminoimidazo[2,1-f][1,2,4]triazin-7-yl)-4-methylphenyl)sulfonyl)-6-methylpiperidin-2-yl)methanol] | 500 to 2000 | < 100 | 500 to 1000 | –
Cc1ccc(S(=O)(=O)N(CCC#N)C2CCCC2)cc1-c1cnc2c(N)ncnn12 [Example 165, 3-(4-aminoimidazo[2,1-f][1,2,4]triazin-7-yl)-N-(2-cyanoethyl)-N-cyclopentyl-4-methylbenzenesulfonamide] | 100 to 500 | < 100 | 500 to 1000 | –
Cc1ccc(S(=O)(=O)N2CCNC[C@@H]2CO)cc1-c1cnc2c(N)ncnn12 [Example 166, (R)-(1-((3-(4-aminoimidazo[2,1-f][1,2,4]triazin-7-yl)-4-methylphenyl)sulfonyl)piperazin-2-yl)methanol] | 100 to 500 | < 100 | 100 to 500 | –
Cc1ccc(S(=O)(=O)N(CCC#N)CCCO)cc1-c1cnc2c(N)ncnn12 [Example 175, 3-(4-aminoimidazo[2,1-f][1,2,4]triazin-7-yl)-N-(2-cyanoethyl)-N-(3-hydroxypropyl)-4-methylbenzenesulfonamide] | 100 to 500 | < 100 | 100 to 500 | –
Cc1ccc(S(=O)(=O)NC23CCC(CC2)C3)cc1-c1cnc2c(N)ncnn12 [Example 180, 3-(4-aminoimidazo[1,2-f][1,2,4]triazin-7-yl)-N-(bicyclo[2.2.1]heptan-1-yl)-4-methylbenzenesulfonamide trifluoroacetate salt] | 100 to 500 | < 100 | – | 100 to 500
Cc1ccc(S(=O)(=O)NC23CCC(CC2)CC3)cc1-c1cnc2c(N)ncnn12 [Example 181, 3-(4-aminoimidazo[1,2-f][1,2,4]triazin-7-yl)-N-(bicyclo[2.2.2]octan-1-yl)-4-methylbenzenesulfonamide trifluoroacetate salt] | < 100 | < 100 | – | 100 to 500
Cc1ccc(S(=O)(=O)NC23CCN(CC2)CC3)cc1-c1cnc2c(N)ncnn12 [Example 182, 3-(4-aminoimidazo[1,2-f][1,2,4]triazin-7-yl)-4-methyl-N-(quinuclidin-4-yl)benzenesulfonamide trifluoroacetate salt] | 500 to 2000 | < 100 | – | 500 to 1000
Cc1ccc(S(=O)(=O)N[C@H]2CC[C@H](CC#N)OC2)cc1-c1cnc2c(N)ncnn12 [Example 183, 3-(4-aminoimidazo[2,1-f][1,2,4]triazin-7-yl)-N-((3S,6R)-6-(cyanomethyl)tetrahydro-2H-pyran-3-yl)-4-methylbenzenesulfonamide] | 100 to 500 | < 100 | < 100 | –
Cc1ccc(S(=O)(=O)N[C@H]2CC[C@H](CC#N)CC2)cc1-c1cnc2c(N)ncnn12 [Example 184, 3-(4-aminoimidazo[2,1-f][1,2,4]triazin-7-yl)-N-(trans-4-(cyanomethyl)cyclohexyl)-4-methylbenzenesulfonamide trifluoroacetate] | < 100 | < 100 | < 100 | –
Cc1ccc(S(=O)(=O)NC23CCC(O)(CC2)CC3)cc1-c1cnc2c(N)ncnn12 [Example 185, 3-(4-aminoimidazo[2,1-f][1,2,4]triazin-7-yl)-N-(4-hydroxybicyclo[2.2.2]octan-1-yl)-4-methylbenzenesulfonamide] | 100 to 500 | < 100 | 100 to 500 | –
Cc1ccc(S(=O)(=O)NC23CCC(CO)(CC2)CC3)cc1-c1cnc2c(N)ncnn12 [Example 186, 3-(4-aminoimidazo[2,1-f][1,2,4]triazin-7-yl)-N-(4-(hydroxymethyl)bicyclo[2.2.2]octan-1-yl)-4-methylbenzenesulfonamide] | 100 to 500 | < 100 | 100 to 500 | –
Cc1ccc(S(=O)(=O)NC23CCC(C#N)(CC2)CC3)cc1-c1cnc2c(N)ncnn12 [Example 187, 3-(4-aminoimidazo[2,1-f][1,2,4]triazin-7-yl)-N-(4-cyanobicyclo[2.2.2]octan-1-yl)-4-methylbenzenesulfonamide] | 100 to 500 | < 100 | 100 to 500 | –
Cc1ccc(S(=O)(=O)NC23CCC(F)(CC2)CC3)cc1-c1cnc2c(N)ncnn12 [Example 188, 3-(4-aminoimidazo[2,1-f][1,2,4]triazin-7-yl)-N-(4-fluorobicyclo[2.2.2]octan-1-yl)-4-methylbenzenesulfonamide] | < 100 | < 100 | 100 to 500 | –
Cc1ccc(S(=O)(=O)NC2(C#N)CC2)cc1-c1cnc2c(N)ncnn12 [Example 189, 3-(4-aminoimidazo[2,1-f][1,2,4]triazin-7-yl)-N-(1-cyanocyclopropyl)-4-methylbenzenesulfonamide] | 500 to 2000 | < 100 | 500 to 1000 | –
Cc1ccc(S(=O)(=O)NC(C)(C)C(N)=O)cc1-c1cnc2c(N)ncnn12 [Example 190, 2-((3-(4-aminoimidazo[2,1-f][1,2,4]triazin-7-yl)-4-methylphenyl)sulfonamido)-2-methylpropanamide trifluoroacetate] | 500 to 2000 | < 100 | > 1000 | –
Cc1ccc(S(=O)(=O)NC2(C#N)CCC2)cc1-c1cnc2c(N)ncnn12 [Example 192, 3-(4-aminoimidazo[2,1-f][1,2,4]triazin-7-yl)-N-(1-cyanocyclobutyl)-4-methylbenzenesulfonamide trifluoroacetate] | 100 to 500 | < 100 | 500 to 1000 | –
